Assays:
Recombinant human HDAC6 = target: T1, Recombinant human HDAC6 (Homo sapiens, UniProt Q9UBN7); test: HDAC6 biochemical assay, AMC-labeled peptide substrate; conditions: HDAC6; read-out: HDAC Isoform IC50 (nM) 6
T1 construct: full length, MW=159 kDa; GST (N); host or cells: Sf9 insect cells (baculovirus)
T1 sequence (Q9UBN7 1-1215): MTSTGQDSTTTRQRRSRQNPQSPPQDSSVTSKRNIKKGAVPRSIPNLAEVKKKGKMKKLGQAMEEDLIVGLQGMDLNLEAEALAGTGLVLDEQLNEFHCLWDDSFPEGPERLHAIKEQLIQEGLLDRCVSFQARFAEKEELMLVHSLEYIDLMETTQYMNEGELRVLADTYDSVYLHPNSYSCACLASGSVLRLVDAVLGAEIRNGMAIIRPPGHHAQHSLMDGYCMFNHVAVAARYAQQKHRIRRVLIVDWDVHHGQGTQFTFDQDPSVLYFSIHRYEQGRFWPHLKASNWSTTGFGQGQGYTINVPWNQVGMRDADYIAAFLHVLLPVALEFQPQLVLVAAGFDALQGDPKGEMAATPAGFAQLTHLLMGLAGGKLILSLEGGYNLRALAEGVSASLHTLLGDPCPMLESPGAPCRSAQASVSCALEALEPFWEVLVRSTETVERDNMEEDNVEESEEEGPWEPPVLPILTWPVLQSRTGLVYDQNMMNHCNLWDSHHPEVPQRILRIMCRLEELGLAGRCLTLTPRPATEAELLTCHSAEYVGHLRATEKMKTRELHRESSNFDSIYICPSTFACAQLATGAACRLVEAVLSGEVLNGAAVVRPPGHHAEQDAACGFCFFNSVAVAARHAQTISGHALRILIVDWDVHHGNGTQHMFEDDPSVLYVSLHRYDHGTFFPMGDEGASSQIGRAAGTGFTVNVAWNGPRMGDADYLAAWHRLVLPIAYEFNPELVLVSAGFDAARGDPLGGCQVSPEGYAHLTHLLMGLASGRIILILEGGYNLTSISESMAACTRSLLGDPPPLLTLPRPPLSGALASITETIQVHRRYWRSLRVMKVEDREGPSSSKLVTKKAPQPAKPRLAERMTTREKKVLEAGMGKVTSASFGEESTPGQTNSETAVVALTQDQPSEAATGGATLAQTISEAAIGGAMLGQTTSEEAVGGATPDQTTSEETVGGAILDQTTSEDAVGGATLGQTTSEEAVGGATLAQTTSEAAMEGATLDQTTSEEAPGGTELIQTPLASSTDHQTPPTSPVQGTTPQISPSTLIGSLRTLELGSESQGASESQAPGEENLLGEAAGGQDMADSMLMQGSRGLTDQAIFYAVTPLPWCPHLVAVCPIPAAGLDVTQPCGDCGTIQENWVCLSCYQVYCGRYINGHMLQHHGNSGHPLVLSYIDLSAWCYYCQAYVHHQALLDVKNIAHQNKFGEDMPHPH
Procedure, shortened: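 Two-step fluorogenic read-out: enzyme deacetylates 50 μM RHKK(Ac)AMC for 1 h at 30° C in pH 8.0 Tris buffer with BSA and 1% DMSO, then developer cleavage gives signal at Ex 360/Em 460. Enzyme: 0.3 ng/ul recombinant full-length human HDAC6, GST-tagged, Sf9-expressed.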

Human HDAC4 = target: T2, Human HDAC4 (Homo sapiens, UniProt P56524); test: HDAC4 biochemical assay, class IIa-specific substrate; conditions: read-out: HDAC Isoform IC50 (nM) 4
T2 construct: amino acids 627-1085 with N-terminal GST tag; GST (N); host or cells: baculovirus expression system
Procedure, shortened: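 Two-step fluorogenic read-out: deacetylated BOC-Lys(trifluoroacetyl)-AMC (50 μM) was digested by developer and measured at Ex/Em 360/460. Deacetylation by 0.004 ng/ul HDAC4 (aa 627-1085, N-terminal GST) ran 30 min at room temperature, pH 8.0 Tris buffer, 1 mg/mL BSA, 1% DMSO.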

Human HDAC9 = target: T3, Human HDAC9 (Homo sapiens, UniProt Q9UKV0); test: HDAC9 biochemical assay, class IIa-specific substrate; conditions: read-out: HDAC Isoform IC50 (nM) 9
T3 construct: amino acids 604-1066 with C-terminal His tag; His (C); host or cells: baculovirus expression system
Procedure, shortened: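 HDAC9 residues 604-1066 (C-terminal His tag, baculovirus-expressed) at 0.06 ng/ul with 50 μM class IIa substrate Boc-Lys(trifluoroacetyl)-AMC in Tris-HCl pH 8.0 buffer with BSA and 1% DMSO. 30 min at room temperature, then developer added; fluorescence read at 360/460 nm Ex/Em.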

Human HDAC7 = target: T4, Human HDAC7 (Homo sapiens, UniProt Q8WUI4); test: HDAC7 biochemical assay, class IIa-specific substrate; conditions: read-out: HDAC Isoform IC50 (nM) 7
T4 construct: (a.a. 518-end) with N-terminal GST tag; GST (N); host or cells: baculovirus expression system
T4 sequence (Q8WUI4 518-952 limits assumed): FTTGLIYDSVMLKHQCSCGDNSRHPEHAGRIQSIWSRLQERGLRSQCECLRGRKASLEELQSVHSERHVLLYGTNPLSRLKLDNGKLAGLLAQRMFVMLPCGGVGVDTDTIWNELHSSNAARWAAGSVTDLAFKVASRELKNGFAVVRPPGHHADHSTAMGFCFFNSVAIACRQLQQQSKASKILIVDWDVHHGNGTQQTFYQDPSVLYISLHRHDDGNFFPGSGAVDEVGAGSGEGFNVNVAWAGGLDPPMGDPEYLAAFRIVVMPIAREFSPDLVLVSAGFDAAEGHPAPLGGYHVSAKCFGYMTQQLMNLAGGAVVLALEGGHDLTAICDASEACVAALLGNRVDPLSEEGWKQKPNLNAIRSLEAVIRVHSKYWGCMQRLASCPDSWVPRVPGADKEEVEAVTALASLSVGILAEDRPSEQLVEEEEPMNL
Procedure, shortened: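 Two-step fluorogenic readout: class IIa-selective trifluoroacetyl-lysine AMC substrate (50 μM) deacetylated by N-terminal GST-HDAC7 fragment (0.001 ng/ul), then digested by developer, Ex/Em 360/460. Reaction: 30 min, room temperature, Tris-HCl pH 8.0, NaCl/KCl/MgCl2, 1 mg/mL BSA, 1% DMSO.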

Human HDAC5 = target: T5, Human HDAC5 (Homo sapiens, UniProt Q9UQL6); test: HDAC5 biochemical assay, class IIa-specific substrate; conditions: read-out: HDAC Isoform IC50 (nM) 5
T5 construct: full length with C-terminal His tag, MW=51.1 kDa; His (C); host or cells: baculovirus expression system
Procedure, shortened: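 Two-step fluorogenic read-out: deacetylated trifluoroacetyl-lysine AMC substrate (50 μM) digested by developer, measured at Ex/Em 360/460. Deacetylation step: 0.05 ng/ul His-tagged full-length baculoviral enzyme with compound, 30 min, room temperature, pH 8.0 Tris with 1 mg/mL BSA and 1% DMSO.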

Human HDAC1 = target: T6, Human HDAC1 (Homo sapiens, UniProt Q13547); test: HDAC1 biochemical assay, AMC-labeled peptide substrate; conditions: read-out: HDAC Isoform IC50 (nM) 1
T6 construct: full length with C-terminal His-tag and C-terminal FLAG-tag; His (C); FLAG (C); host or cells: baculovirus expression system
Procedure, shortened: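 Two-step fluorogenic read: HDAC1 deacetylates 50 μM acetyl-lysine AMC peptide RHKK(Ac)AMC for 1 h at 30° C (pH 8.0, 1% DMSO, with compound), then developer digests the product for fluorescence at Ex/Em 360/460. Enzyme is full-length human, His/FLAG-tagged, insect-cell expressed, at 0.3 ng/ul.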

T5 sequence (Q9UQL6 656-1122 limits assumed): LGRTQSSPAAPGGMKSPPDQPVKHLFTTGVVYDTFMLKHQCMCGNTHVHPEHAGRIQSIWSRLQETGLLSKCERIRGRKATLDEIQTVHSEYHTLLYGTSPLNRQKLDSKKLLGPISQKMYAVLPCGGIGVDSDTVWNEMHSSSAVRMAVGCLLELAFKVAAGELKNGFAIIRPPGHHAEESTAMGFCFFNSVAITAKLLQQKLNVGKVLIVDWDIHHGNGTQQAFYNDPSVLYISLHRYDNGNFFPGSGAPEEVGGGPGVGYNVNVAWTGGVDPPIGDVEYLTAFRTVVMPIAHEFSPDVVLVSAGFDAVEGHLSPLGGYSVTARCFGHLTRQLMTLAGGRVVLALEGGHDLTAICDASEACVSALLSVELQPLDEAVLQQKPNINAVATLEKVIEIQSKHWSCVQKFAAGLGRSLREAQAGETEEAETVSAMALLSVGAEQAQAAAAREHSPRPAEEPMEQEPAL
T3 sequence (Q9UKV0 604-1066 isoform Q9UKV0-5): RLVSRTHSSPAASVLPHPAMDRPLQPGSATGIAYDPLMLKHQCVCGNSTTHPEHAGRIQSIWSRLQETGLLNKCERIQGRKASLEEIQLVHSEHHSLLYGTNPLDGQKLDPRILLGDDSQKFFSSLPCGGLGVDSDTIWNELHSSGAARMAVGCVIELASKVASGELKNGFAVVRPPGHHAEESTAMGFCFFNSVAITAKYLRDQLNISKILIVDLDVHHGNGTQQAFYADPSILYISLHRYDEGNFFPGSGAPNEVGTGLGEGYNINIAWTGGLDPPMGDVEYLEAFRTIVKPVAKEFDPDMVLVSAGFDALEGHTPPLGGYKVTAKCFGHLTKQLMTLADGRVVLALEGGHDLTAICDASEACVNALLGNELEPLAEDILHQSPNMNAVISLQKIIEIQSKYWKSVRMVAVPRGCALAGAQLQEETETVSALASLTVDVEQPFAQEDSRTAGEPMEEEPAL
T6 sequence (Q13547 whole entry, canonical isoform): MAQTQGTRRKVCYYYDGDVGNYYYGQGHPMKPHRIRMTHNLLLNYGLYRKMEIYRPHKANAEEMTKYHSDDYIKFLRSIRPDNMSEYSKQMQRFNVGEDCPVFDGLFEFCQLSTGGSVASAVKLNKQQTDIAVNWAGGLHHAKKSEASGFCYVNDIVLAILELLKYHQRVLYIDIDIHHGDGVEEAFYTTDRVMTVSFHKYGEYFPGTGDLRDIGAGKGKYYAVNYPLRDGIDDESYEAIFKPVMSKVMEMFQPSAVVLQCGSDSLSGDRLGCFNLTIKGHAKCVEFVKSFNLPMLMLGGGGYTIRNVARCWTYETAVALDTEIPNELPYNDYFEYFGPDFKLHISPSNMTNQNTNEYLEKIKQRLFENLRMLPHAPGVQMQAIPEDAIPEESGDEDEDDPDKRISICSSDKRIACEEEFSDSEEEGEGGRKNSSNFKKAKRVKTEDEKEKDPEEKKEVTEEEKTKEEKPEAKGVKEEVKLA
T2 sequence (P56524 627-1084 limits assumed): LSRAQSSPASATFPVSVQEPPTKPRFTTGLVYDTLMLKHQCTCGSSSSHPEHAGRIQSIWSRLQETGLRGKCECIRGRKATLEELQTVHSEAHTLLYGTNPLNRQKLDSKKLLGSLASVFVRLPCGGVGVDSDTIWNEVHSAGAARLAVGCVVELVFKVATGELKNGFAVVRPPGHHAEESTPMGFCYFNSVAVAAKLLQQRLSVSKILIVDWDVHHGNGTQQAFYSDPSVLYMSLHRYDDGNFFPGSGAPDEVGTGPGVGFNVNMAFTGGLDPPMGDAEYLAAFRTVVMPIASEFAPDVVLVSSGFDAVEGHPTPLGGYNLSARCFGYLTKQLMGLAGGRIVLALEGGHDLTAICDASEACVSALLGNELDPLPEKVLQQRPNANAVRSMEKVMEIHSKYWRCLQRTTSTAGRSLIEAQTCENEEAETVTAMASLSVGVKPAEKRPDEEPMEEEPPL

Row | SMILES | IC50 (Recombinant human HDAC6) | IC50 (Human HDAC4) | IC50 (Human HDAC9) | IC50 (Human HDAC7) | IC50 (Human HDAC5) | IC50 (Human HDAC1)
1 | FC(F)(F)c1cnnc(N(Cc2ccc(-c3noc(C(F)(F)F)n3)s2)c2ccccn2)c1 [Example EG, N-(Pyridin-2-yl)-5-(trifluoromethyl)-N-({5-[5-(trifluoromethyl)-1,2,4-oxadiazol-3-yl]thiophen-2-yl}methyl)pyridazin-3-amine] | ≤ 10000 nM | ≤ 10000 nM | > 10000 nM | > 10000 nM | ≤ 10000 nM | > 10000 nM
2 | FC(F)(F)c1nc(-c2ccc(CN(c3cnccn3)c3nccc4nccnc34)s2)no1 [Example AL, N-{Pyrido[3,4-b]pyrazin-5-yl}-N-({5-[5-(trifluoromethyl)-1,2,4-oxadiazol-3-yl]thiophen-2-yl}methyl)pyrazin-2-amine] | ≤ 10000 nM | ≤ 10000 nM | ≤ 10000 nM | ≤ 10000 nM | ≤ 10000 nM | > 10000 nM
3 | Fc1cnc(N(Cc2ccc(-c3noc(C(F)(F)F)n3)s2)c2cnccn2)nc1 [Example AX, 5-Fluoro-N-(pyrazin-2-yl)-N-({5-[5-(trifluoromethyl)-1,2,4-oxadiazol-3-yl]thiophen-2-yl}methyl)pyrimidin-2-amine] | ≤ 10000 nM | ≤ 10000 nM | ≤ 10000 nM | ≤ 10000 nM | ≤ 10000 nM | > 10000 nM
4 | FC(F)(F)c1nc(-c2ccc(CN(c3cnccn3)c3cnc(-c4ccco4)cn3)s2)no1 [Example BJ, 5-(Furan-2-yl)-N-(pyrazin-2-yl)-N-({5-[5-(trifluoromethyl)-1,2,4-oxadiazol-3-yl]thiophen-2-yl}methyl)pyrazin-2-amine] | ≤ 10000 nM | ≤ 1000 nM | ≤ 10000 nM | ≤ 10000 nM | ≤ 10000 nM | ≤ 10000 nM
5 | FC(F)(F)c1cnnc(N(Cc2ccc(-c3noc(C(F)(F)F)n3)s2)c2cncnc2)c1 [Example EQ, N-(Pyrimidin-5-yl)-5-(trifluoromethyl)-N-({5-[5-(trifluoromethyl)-1,2,4-oxadiazol-3-yl]thiophen-2-yl}methyl)pyridazin-3-amine] | ≤ 1000 nM | ≤ 10000 nM | ≤ 10000 nM | ≤ 10000 nM | ≤ 10000 nM | > 10000 nM
6 | Fc1cc(-c2noc(C(F)(F)F)n2)sc1CN(c1cnccn1)c1cnccn1 [Example EY, N-({3-Fluoro-5-[5-(trifluoromethyl)-1,2,4-oxadiazol-3-yl]thiophen-2-yl}methyl)-N-(pyrazin-2-yl)pyrazin-2-amine] | ≤ 500 nM | ≤ 10000 nM | ≤ 10000 nM | ≤ 1000 nM | ≤ 500 nM | > 10000 nM
7 | FC(F)(F)c1cncc(N(Cc2ccc(-c3noc(C(F)(F)F)n3)s2)c2cnccn2)c1 [Example AQ, N-({5-[5-(Trifluoromethyl)-1,2,4-oxadiazol-3-yl]thiophen-2-yl}methyl)-N-[5-(trifluoromethyl)pyridin-3-yl]pyrazin-2-amine] | ≤ 10000 nM | ≤ 10000 nM | ≤ 10000 nM | ≤ 10000 nM | ≤ 1000 nM | > 10000 nM
8 | COc1cc(N(Cc2ccc(-c3noc(C(F)(F)F)n3)s2)c2cnccn2)ncn1 [Example CH, 6-Methoxy-N-(pyrazin-2-yl)-N-({5-[5-(trifluoromethyl)-1,2,4-oxadiazol-3-yl]thiophen-2-yl}methyl)pyrimidin-4-amine] | ≤ 10000 nM | ≤ 10000 nM | ≤ 10000 nM | ≤ 10000 nM | ≤ 10000 nM | > 10000 nM
9 | COc1ncncc1N(Cc1ccc(-c2noc(C(F)(F)F)n2)s1)c1cnccn1 [Example CY, 4-Methoxy-N-(pyrazin-2-yl)-N-({5-[5-(trifluoromethyl)-1,2,4-oxadiazol-3-yl]thiophen-2-yl}methyl)pyrimidin-5-amine] | ≤ 10000 nM | ≤ 1000 nM | ≤ 10000 nM | ≤ 10000 nM | ≤ 500 nM | > 10000 nM
10 | Cc1cc(N(Cc2ccc(-c3noc(C(F)(F)F)n3)s2)c2cnccn2)ncn1 [Example CG, 6-Methyl-N-(pyrazin-2-yl)-N-({5-[5-(trifluoromethyl)-1,2,4-oxadiazol-3-yl]thiophen-2-yl}methyl)pyrimidin-4-amine] | ≤ 1000 nM | ≤ 10000 nM | ≤ 10000 nM | ≤ 10000 nM | ≤ 1000 nM | > 10000 nM
11 | Cn1ccc2c(N(Cc3ccc(-c4noc(C(F)(F)F)n4)s3)c3cnccn3)ncnc21 [Example CM, N-{7-Methyl-7H-pyrrolo[2,3-d]pyrimidin-4-yl}-N-({5-[5-(trifluoromethyl)-1,2,4-oxadiazol-3-yl]thiophen-2-yl}methyl)pyrazin-2-amine] | ≤ 10000 nM | ≤ 10000 nM | ≤ 10000 nM | ≤ 10000 nM | ≤ 10000 nM | > 10000 nM
12 | FC(F)(F)c1nc(-c2ccc(CN(c3cnccn3)c3cc(N4CCOCC4)ncn3)s2)no1 [Example CL, 6-(Morpholin-4-yl)-N-(pyrazin-2-yl)-N-({5-[5-(trifluoromethyl)-1,2,4-oxadiazol-3-yl]thiophen-2-yl}methyl)pyrimidin-4-amine] | ≤ 10000 nM | ≤ 10000 nM | ≤ 10000 nM | ≤ 10000 nM | ≤ 10000 nM | > 10000 nM
